Assay results from patent US12338221B2, “Process for preparation of sulfentrazone with tank-mix compatibility” (UPL LTD, priority 2021, dated 2025).

Test: Tank mix compatibility test with other pesticide active compound
Format: physicochemical
Conditions: FIG. 2 and FIG. 3
Description: Samples prepared according to Example 6 and Example 7 were tested for compatibility with clomazone EC formulation (UPSTAGE®). The tank mix compatibility was checked as per the dosages mentioned below: [table] Method: Total 250 ml of spray dilution solution was prepared using above mentioned composition wherein 7 ml of each sample 1 and sample 2 were mixed with 10 ml of UPSTAGE® and mixture was diluted with water.

| Structure (SMILES) | Physical incompatibilities when mixed with a clomazone EC formulation |
| --- | --- |
| Cc1nn(-c2cc(NS(C)(=O)=O)c(Cl)cc2Cl)c(=O)n1C(F)F [conventionally prepared sulfentrazone, N[2,4-dichloro-5-[4-(difluoromethyl)-4,5-dihydro-3-methyl-5-oxo-1H-1,2,4-triazol-1-yl]phenyl]methanesulfonamide] | moderate to severe physical incompatibilities |
| Cc1nn(-c2cc(NS(C)(=O)=O)c(Cl)cc2Cl)c(=O)n1C(F)F [sulfentrazone prepared in accordance with the present disclo] [N[2,4-dichloro-5-[4-(difluoromethyl)-4,5-dihydro-3-methyl-5-oxo-1H-1,2,4-triazol-1-yl]phenyl]methanesulfonamide] | did not result in any physical incompatibilities |
